From patent publication US20220249401A1, “DIETARY SUPPLEMENT FORMULATED BASED ON ALL-TRANS FORM OF MENAQUINONE-7” (NUTRIOMICS LIMITED, priority 2021, published 2022)

Test system: MGP
Experiment: MGP gene expression in chondrocyte cells treated with trans form of MK7
Type: cell-based
Settings: Chondrocyte cells treated with 0.01% (w/w) trans form of MK7; mRNA encoding MGP, relative to control conditions
Experimental: Example 2—The role of the trans form of MK7 in expression of MGP was measured as compared to control samples. Chondrocyte cells were treated with 0.01% (w/w) trans form of vitamin MK7 and results were reported as fold change in gene expression relative to control conditions.
MGP expression was elevated by 21% in the presence of trans form of MK7 as compared to the control samples as can be concluded from FIG. 2. […] MGP gene expression found to actively be regulated in the presence of trans form of MK7.

## CC(C)=CCC/C(C)=C/CC/C(C)=C/CC/C(C)=C/CC/C(C)=C/CC/C(C)=C/CC/C(C)=C/CC1=C(C)C(=O)c2ccccc2C1=O [trans form of MK7, all-trans form of Menaquinone-7]
  MGP expression elevated as compared to the control samples: 21%
